Data from patent US20120291148A1, “TRANSGENIC PLANTS WITH ENHANCED CHARACTERISTICS” (Miami University, priority 2007, published 2012).
Where two headings read alike, the source gives them in different places.

What was measured:
[1] = target: T1, AtETHE1 (Arabidopsis thaliana, UniProt Q9C8L4, S50M); assay: Inhibition of AtETHE1 p-nitrophenyl acetate hydrolysis by metal chelator; assay type: biochemical; conditions: presence of metal chelator
T1 construct: made in house
Procedure: (§1) Enzymatic assays were conducted at 25° C. in 10 mM MOPS, pH 7.2, on a Cary IE UV-Vis spectrophotometer. A series of thioesters of glutathione were synthesized as previously described (L. Uotila, Meth. Enzymol. 77 (1981) 424-430), and all other substrates were purchased commercially. The hydrolysis of S-D-lactoylglutathione (Sigma), S-D-acetylglutathione, S-D-acetoacetylglutathione, S-D-formylglutathione, S-D-glyocosylgutathione or S-D-pyruvylglutathione was monitored at 240 nm. S-D-mandeloylglutathione hydrolysis was monitored at 263 nm (L. Uotila, Meth. Enzymol. 77 (1981) 424-430). Hydrolysis of p-nitrophenyl phosphate (Sigma), p-nitrophenyl sulfate (Sigma), and p-nitrophenyl acetate (Sigma) was monitored at 400 nm (see R. A. Anderson, et al., Proc. Natl. Acad. Sci. 72 (1975) 2989-2993; J. J. Brandt, et al., Anal. Biochem. 272 (1999) 94-99; J. M. Armstrong, et al., J. Biol. Chem. 241 (1966) 5137-5149). The hydrolysis of L-alanine-p-nitroanilide (Sigma) was measured at 404 nm (J. J. Brandt, et al., Anal. Biochem. 272 (1999) 94-99). Ala-ala-ala-p-nitroanilide (Sigma) and y-L-Glu-p-nitroanalide (Sigma) hydrolysis was monitored at 410 nm. Hydrolysis of benzoylglycyl-L-phenylalanine was monitored at 254 nm (J. F. Sabastian, et al., Can. J. Biochem. 56 (1978) 329-333). […]

[2] = system: AtETHE1 expression; assay: RT-PCR of AtETHE1 mRNA in hydroponic plants under abiotic stress (Example 4); assay type: in vivo, Arabidopsis Columbia; conditions: 10 uM ABA 3 hours; 150 mM NaCl 12 hours (roots); 300 mM Mannitol 24 hours
Procedure: Stress studies were performed on Wild-type Arabidopsis Columbia grown hydroponically. Seeds were germinated on Rockwool (GrodanHP, Agro Dynamics Inc., East Brunswick, N.J., USA) suspended above Hoagland's solution and grown in a growth chamber maintained at 23° C. and 16 hour light, 8 hour dark cycles. For the plants stressed with abscisic acid (ABA), seedlings were grown hydroponically for 7 days and then stressed for 3 hours with 10 uM ABA. Plants were grown hydroponically for 18 days for stresses with NaCl and Mannitol. Plants were either stressed with 150 mM NaCl for 12 hours or stressed for 24 hours with 300 mM Mannitol. Plant material, roots only for NaCl stress, was immediately ground in liquid N2 and stored in the −80° C. until needed for RNA isolation.
AtETHE1 RNA levels were determined using RT-PCR on total RNA isolated from either whole plants (ABA, Mannitol treated) or from the roots (NaCl treated). […] ACT8 was used as a control.

[3] = system: AtETHE1 transcript levels; assay: RT-PCR of AtETHE1 transcript levels under abiotic stress (Example 5); assay type: in vivo, Arabidopsis Columbia; conditions: 10 μM ABA 3 hours; 150 mM NaCl or 300 mM Mannitol 24 hours
Procedure: Stress studies were performed on wild-type Arabidopsis Columbia plants grown hydroponically. Seeds were germinated on Rockwool (GrodanHP, Agro Dynamics Inc., East Brunswick, N.J., USA) suspended above Hoagland's solution (Cowgilland & Milazzo, (1989) The Culturing and Testing of Two Species of Duckweed. In W J Adams, G A Chapman, eds, Aquatic Toxicology and Hazard Assessment Vol 12. American Society for Testing and Materials, Philadelphia, Pa., pp 379-391) and grown in a growth chamber maintained at 23° C. with 16 hour light, 8 hour dark cycles. Plants stressed with abscisic acid (ABA), were grown hydroponically for 7 days and then stressed for 3 hours with 10 μM ABA. Plants were grown hydroponically for 18 days prior to treatment with either 150 mM NaCl or 300 mM Mannitol for 24 hours.
AtETHE1 RNA levels were determined by RT-PCR on total RNA (1 μg) isolated from cotyledon, root, stem, leaf, silique, and bud, and seedlings subjected to abiotic stresses. AtETHE1 cDNA was synthesized using a Thermoscript RT-PCR kit, followed by 25 cycles of PCR using the primer pair 2-3-5′ and 2-3-2. ACT8 was used as a control (An, et al., (1996) Plant J 10: 107-121).

[4] = target: T1, AtETHE1; assay: Steady-state kinetic test of candidate substrates with AtETHE1; assay type: biochemical; conditions: steady-state kinetic studies after screening hit
Procedure: as §1

[5] = system: Arabidopsis seedlings (root growth); assay: Seedling growth on MS plates with exogenous metabolites; assay type: in vivo, Arabidopsis thaliana; conditions: for sensitivity of AtETHE256-OE plants compared with wild-type plants: 0 mM to 2 mM metabolite on MS plates; for inhibition at 1500 µM: Arabidopsis thaliana, 168 h, 1.5 mM valine, 7 days of growth
Procedure: Studies in Arabidopsis thaliana Heyhn were performed on the Wassilewskija (WS) ecotype. Seeds were vernalized at 4° C. for 48 hours prior to being placed in a growth chamber. For measurement of toxicity and germination rates, seeds were surfaced sterilized with 70% ethanol for 30 seconds followed by 10% bleach for 30 minutes, rinsed three times with sterile deionized water and plated on half strength Murashige and Skoog (MS) plates solidified with 0.6% Gelrite and supplemented with 1.5% sucrose, pH 6.0. Plates were vernalized for four days at 4° C. and then placed in a controlled growth chamber at 23° C. on a 16:8 light/dark cycle.
Wild-type Arabidopsis (Ws), AtETHE1256-OE, and AtETHE1294-OE seeds were sown onto half-strength MS plates with 0 mM to 2 mM valine, propionate, ethylmalonic acid, butyric acid, or crotonic acid (all purchased from Sigma). Neutralized, filter-sterilized metabolites were added after the medium was autoclaved. Once toxicity levels for wild-type seeds were obtained, wild-type, AtETHE1256-OE, and AtETHE1294-OE seeds were plated together on the same plates. Root lengths and cotyledon growth from 100 plants per stress were measured and compared after 7 days of growth.

[6] = system: plants; assay: Preliminary studies of methylmalonate toxicity in plants; assay type: in vivo
[7] = recombinant rat carbonic anhydrase III, G. Kim et al. 2000; cited from earlier work
[8] = Steady-state hydrolysis of p-nitrophenyl acetate by purified AtETHE1; assay type: biochemical, Arabidopsis thaliana; conditions: substrate p-nitrophenyl acetate; 25° C., 10 mM MOPS pH 7.2
Procedure: as §1

[9] = Thioesterase activity of AtETHE1 with SLG and other glutathione thioesters; assay type: biochemical, Arabidopsis thaliana
Procedure: as §1

c1cnc2c(c1)ccc1cccnc12 [1,10-o-phenanthroline]
effect on AtETHE1 activity towards p-nitrophenyl acetate [1]: inhibited

CC1=CC(=O)CC(C)(C)[C@@]1(O)/C=C/C(C)=C\C(=O)O [ABA, abscisic acid]
fold increase of AtETHE1 expression versus control [2]: 1.8 fold | increase in AtETHE1 transcript levels [3]: approximately two fold increases

N[C@@H](CCC(=O)Nc1ccc([N+](=O)[O-])cc1)C(=O)O [Glu-pNA, y-L-Glu-p-nitroanalide]
substrate for AtETHE1 [4]: not to be substrates

[Cl-].[Na+] [NaCl]
fold increase of AtETHE1 expression versus control [2]: 2.1 fold | increase in AtETHE1 transcript levels [3]: approximately two fold increases

CCCC(=O)O [butyric acid]
sensitivity of AtETHE256-OE plants compared with wild-type plants [5]: same sensitivity

C/C=C/C(=O)O [crotonic acid]
sensitivity of AtETHE256-OE plants compared with wild-type plants [5]: same sensitivity

CCC(C(=O)O)C(=O)O [ethylmalonic acid]
sensitivity of AtETHE256-OE plants compared with wild-type plants [5]: same sensitivity

OC[C@@H](O)[C@@H](O)[C@H](O)[C@H](O)CO [mannitol]
fold increase of AtETHE1 expression versus control [2]: 2.6 fold | increase in AtETHE1 transcript levels [3]: approximately 2.5 fold

CC(C(=O)O)C(=O)O [methylmalonate]
toxicity in plants [6]: toxic in plants

CCC(=O)O [propionate]
sensitivity of AtETHE256-OE plants compared with wild-type plants [5]: same sensitivity

CC(C)[C@H](N)C(=O)O [valine]
inhibition at 1500 µM ([5]; AtETHE1256-OE plants, read-out: inhibition of growth): ~40% | inhibition at 1500 µM ([5]; wild-type plants, read-out: inhibition of root growth): ~80%

Ala-ala-ala-p-nitroanilide [Ala-Ala-Ala-pNA]
substrate for AtETHE1 [4]: not to be substrates

B1: rat carbonic anhydrase III: recombinant rat carbonic anhydrase III, literature comparator for esterase activity (protein, UniProt P14141 2-260, looked up)
Carbonic anhydrase 3: AKEWGYASHNGPEHWHELYPIAKGDNQSPIELHTKDIRHDPSLQPWSVSYDPGSAKTILNNGKTCRVVFDDTFDRSMLRGGPLSGPYRLRQFHLHWGSSDDHGSEHTVDGVKYAAELHLVHWNPKYNTFGEALKQPDGIAVVGIFLKIGREKGEFQILLDALDKIKTKGKEAPFNHFDPSCLFPACRDYWTYHGSFTTPPCEECIVWLLLKEPMTVSSDQMAKLRSLFASAENEPPVPLVGNWRPPQPIKGRVVRASFK
esterase activity with p-nitrophenyl acetate [7]: 25.8 nmols/min/mg

B2: AtETHE1: Arabidopsis thaliana ETHE1 polypeptide, recombinant, purified from E. coli; mononuclear Fe(II) β-lactamase fold protein (protein)
chain: MKLLFRQLFENESSTFTYLLADVSHPDKPALLIDPVDKTVDRDLKLIDELGLKLIYAMNTHVHADHVTGTGLLKTKLPGVKSVISKASGSKADLFLEPGDKVSIGDIYLEVRATPGHTAGCVTYVTGEGADQPQPRMAFTGDAVLIRGCGRTDFQEGSSDQLYESVHSQIFTLPKDTLIYPAHDYKGFEVSTVGEEMQHNPRLTKDKETFKTIMSNLNLSYPKMIDVAVPANMVCGLQDVPSQAN
activity against p-NPA [8]: 2.02±0.46 nmols/min/mg of enzyme | enzymatic activity towards SLG ([9]; Example 5, over-expressed purified AtETHE1): no enzymatic activity | hydrolysis of glutathione thioesters ([9]; as-isolated and after incubation with excess iron, SLG and other thioester derivatives): did not hydrolyze any of the glutathione thioesters
